Experiment [1] deals with human neuronal constitutive NOS (nNOS) (Homo sapiens, UniProt P29475). As to the kind of experiment: nNOS (Human) enzyme assay, radiometric conversion of [3H]L-arginine to [3H]L-citrulline. It is filed as biochemical. Conditions: for Ratio e/n: human eNOS / human nNOS; for IC50: recombinant human enzyme, 37° C., 45 min, read-out: Human nNOS.
Method: To measure enzyme inhibition, a 15 μL solution of a test substance was added to the enzyme assay solution, followed by a pre-incubation time of 15 min at RT. […] The total volume of the reaction mixture was 150 μL in every well. The reactions were carried out at 37° C. for 45 min. The reaction was stopped by adding 20 μL of ice-cold buffer containing 100 mM HEPES, 3 mM EGTA, 3 mM EDTA, pH=5.5. [^3H]L-citrulline was separated by DOWEX (ion-exchange resin DOWEX 50 W X 8-400, SIGMA) and the DOWEX was removed by spinning at 12,000 g for 10 min in the centrifuge. […] All assays were performed at least in duplicate. Standard deviations were 10% or less.
Experiment [2] deals with human endothelial constitutive NOS (eNOS) (Homo sapiens, UniProt P29474). As to the kind of experiment: eNOS (Human) enzyme assay, radiometric conversion of [3H]L-arginine to [3H]L-citrulline. It is filed as biochemical. Conditions: recombinant human enzyme, 37° C., 45 min; read-out: Human eNOS. The protocol:
Recombinant human inducible NOS (iNOS), human endothelial constitutive NOS (eNOS) or human neuronal constitutive NOS(nNOS) were produced in Baculovirus-infected Sf9 cells (ALEXIS). In a radiometric method, NO synthase activity was determined by measuring the conversion of [^3H]L-arginine to [^3H]L-citrulline. To measure iNOS, 10 μL of enzyme was added to 100 μL of 100 mM HEPES, pH=7,4, containing 1 mM CaCl2, 1 mM EDTA, 1 mM dithiotheitol, 1 μM FMN, 1 μM FAD, 10 μM tetrahydrobiopterin, 120 μM NADPH, and 100 nM CaM. To measure eNOS or nNOS, 10 μL of enzyme was added to 100 μL of 40 mM HEPES, pH=7.4, containing 2.4 mM CaCl2, 1 mM MgCl2, 1 mg/mL BSA, 1 mM EDTA, 1 mM dithiothreitol, 1 μM FMN, 1 μM FAD, 10 μM tetrahydrobiopterin, 1 mM NADPH, and 1.2 μM CaM.
To measure enzyme inhibition, a 15 μL solution of a test substance was added to the enzyme assay solution, followed by a pre-incubation time of 15 min at RT. The reaction was initiated by addition of 20 μL L-arginine containing 0.25 μCi of [^3H]arginine/mL and 24 μM L-arginine. The total volume of the reaction mixture was 150 μL in every well. The reactions were carried out at 37° C. for 45 min. The reaction was stopped by adding 20 μL of ice-cold buffer containing 100 mM HEPES, 3 mM EGTA, 3 mM EDTA, pH=5.5. [^3H]L-citrulline was separated by DOWEX (ion-exchange resin DOWEX 50 W X 8-400, SIGMA) and the DOWEX was removed by spinning at 12,000 g for 10 min in the centrifuge. An 70 μL aliquot of the supernatant was added to 100 μL of scintillation fluid and the samples were counted in a liquid scintillation counter (1450 Microbeta Jet, Wallac). […] All assays were performed at least in duplicate.

Results on 13 compounds are retold here after patent US7989447B2, “1,5 and 3,6-substituted indole compounds having NOS inhibitory activity” (NeurAxon, Inc., priority 2006, dated 2011).

Molecules are shown by their SMILES.

Sequence of human neuronal constitutive NOS (nNOS) (P29475 whole entry): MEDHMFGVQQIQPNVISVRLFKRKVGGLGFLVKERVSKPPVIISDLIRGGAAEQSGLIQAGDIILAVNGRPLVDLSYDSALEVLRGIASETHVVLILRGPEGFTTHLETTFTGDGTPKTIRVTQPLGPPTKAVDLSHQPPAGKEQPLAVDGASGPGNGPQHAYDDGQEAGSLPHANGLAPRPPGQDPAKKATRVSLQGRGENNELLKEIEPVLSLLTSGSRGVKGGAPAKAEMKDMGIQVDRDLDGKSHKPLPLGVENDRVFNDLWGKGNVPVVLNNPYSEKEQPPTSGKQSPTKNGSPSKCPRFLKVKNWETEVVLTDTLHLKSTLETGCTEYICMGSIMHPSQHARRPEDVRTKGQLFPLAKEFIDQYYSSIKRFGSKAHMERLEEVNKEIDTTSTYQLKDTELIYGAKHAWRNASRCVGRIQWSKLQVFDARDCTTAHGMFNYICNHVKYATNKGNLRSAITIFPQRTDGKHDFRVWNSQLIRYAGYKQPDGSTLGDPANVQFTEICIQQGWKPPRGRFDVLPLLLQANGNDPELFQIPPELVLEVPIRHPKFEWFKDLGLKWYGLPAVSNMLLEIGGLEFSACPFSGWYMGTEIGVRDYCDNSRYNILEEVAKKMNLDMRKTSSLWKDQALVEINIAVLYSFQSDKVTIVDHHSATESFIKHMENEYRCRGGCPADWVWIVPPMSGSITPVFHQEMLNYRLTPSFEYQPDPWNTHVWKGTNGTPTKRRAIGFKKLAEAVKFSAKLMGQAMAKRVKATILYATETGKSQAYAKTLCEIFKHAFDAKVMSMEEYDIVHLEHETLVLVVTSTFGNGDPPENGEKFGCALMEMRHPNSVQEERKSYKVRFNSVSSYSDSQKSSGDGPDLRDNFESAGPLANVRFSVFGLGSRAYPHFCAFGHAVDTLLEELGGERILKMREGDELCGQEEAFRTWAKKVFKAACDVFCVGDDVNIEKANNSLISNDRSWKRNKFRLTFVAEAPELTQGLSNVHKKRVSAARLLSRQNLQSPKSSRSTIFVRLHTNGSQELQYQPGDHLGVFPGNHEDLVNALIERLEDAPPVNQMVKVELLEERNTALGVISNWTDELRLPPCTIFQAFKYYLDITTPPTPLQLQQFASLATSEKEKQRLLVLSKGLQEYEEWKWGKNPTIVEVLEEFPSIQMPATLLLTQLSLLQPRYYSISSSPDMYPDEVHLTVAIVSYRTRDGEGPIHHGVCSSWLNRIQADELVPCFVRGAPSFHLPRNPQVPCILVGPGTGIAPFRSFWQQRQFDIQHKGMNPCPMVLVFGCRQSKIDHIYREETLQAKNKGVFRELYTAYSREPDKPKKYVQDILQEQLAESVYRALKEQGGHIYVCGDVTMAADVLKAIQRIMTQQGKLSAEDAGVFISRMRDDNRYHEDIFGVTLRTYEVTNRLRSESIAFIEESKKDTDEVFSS

Turning to `CN1CCCC1CCn1c(Cc2ccccc2)cc2cc(NC(=N)c3cccs3)ccc21` (stereo not drawn) [Compound 6, N-(2-benzyl-1-(2-(1-methylpyrrolidin-2-yl)ethyl)-1H-indol-5-yl)thiophene-2-carboximidamide], the Ratio e/n in experiment [1] worked out at 41.57. In addition, the IC50 in experiment [1] is 0.19 µM; in experiment [2], 7.9 µM.
Consider `N=C(Nc1ccc2c(c1)cc(-c1ccc([N+](=O)[O-])cc1)n2CCN1CCCCC1)c1cccs1` [Compound 18, N-(2-(4-nitrophenyl)-1-(2-(piperidin-1-yl)ethyl)-1H-indol-5-yl)thiophene-2-carboximidamide], for which the IC50 in experiment [1] turned out to be 0.41 µM; in experiment [2], 19 µM.
`Cc1cc2cc(NC(=N)c3cccs3)ccc2n1CCN(C)C` [Compound 25, N-(1-(2-(dimethylamino)ethyl)-2-methyl-1H-indol-5-yl)thiophene-2-carboximidamide]: in experiment [1], the Ratio e/n was 3.88 and the IC50 turned out to be 0.82 µM. The IC50 in experiment [2] is 3.18 µM.
On to `Cc1cc2cc(NC(=N)c3cccs3)ccc2n1CCN1CCCC1` [Compound 28, N-(2-methyl-1-(2-(pyrrolidin-1-yl)ethyl)-1H-indol-5-yl)thiophene-2-carboximidamide], for which, in experiment [1], the Ratio e/n stood at 7.41 and the IC50 was determined as 0.2 µM. In addition, the IC50 in experiment [2] is 1.49 µM.
For `Cc1cc2cc(NC(=N)c3cccs3)ccc2n1CCC1CCCN1C` (stereo not drawn) [Compound 32, N-(2-methyl-1-(2-(1-methylpyrrolidin-2-yl)ethyl)-1H-indol-5-yl)thiophene-2-carboximidamide], in that order: 20.2, 0.14 µM and 2.87 µM.
Consider `CN1CCCC1CCn1ccc2cc(CNC(=N)c3cccs3)ccc21` (stereo not drawn) [Compound 37, N-((1-(2-(1-methylpyrrolidin-2-yl)ethyl)-1H-indol-5-yl)methyl)thiophene-2-carboximidamide], for which, in experiment [1], the Ratio e/n came out at 1.24 and the IC50 came to 73 µM. Also, the IC50 in experiment [2] was determined as 91 µM.
`N=C(Nc1ccc2c(ccn2CCCN2CCOCC2)c1)c1cccs1` [Compound 40, N-(1-(3-morpholinopropyl)-1H-indol-5-yl)thiophene-2-carboximidamide]: in experiment [1], the Ratio e/n is recorded as 9.09 and the IC50 amounted to 0.66 µM. In addition, the IC50 in experiment [2] turned out to be 6 µM.
The corresponding values for `N=C(Nc1ccc2c(ccn2CCCNC23CC4CC(CC(C4)C2)C3)c1)c1cccs1` [Compound 42, N-(1-(3-adamantanaminopropyl)-1H-indol-5-yl)thiophene-2-carboximidamide] are 8.67, 0.36 µM and 3.15 µM.
As for `CCN1CCCC1CNCCCn1ccc2cc(NC(=N)c3cccs3)ccc21` (stereo not drawn) [Compound 44, N-(1-(3-((1-ethylpyrrolidin-2-yl)methylamino)propyl)-1H-indol-5-yl)thiophene-2-carboximidamide], the IC50 in experiment [2] is 6.33 µM.
As for `N=C(Nc1ccc2c(ccn2CCCNC2CC2)c1)c1cccs1` [Compound 46, N-(1-(3-(cyclopropylamino)propyl)-1H-indol-5-yl)thiophene-2-carboximidamide], in experiment [1], the Ratio e/n is 32.53 and the IC50 was 0.26 µM. Also, the IC50 in experiment [2] was 8.72 µM.
As for `CN(C)CCCn1ccc2cc(NC(=N)c3cccs3)ccc21` [Compound 48, N-(1-(3-(dimethylamino)propyl)-1H-indol-5-yl)thiophene-2-carboximidamide], in experiment [2], the IC50 came out at 12.4 µM.
As to `CN1CCCC1CCn1ccc2cc(NC(=N)c3ccco3)ccc21` (stereo not drawn) [Compound 53, N-(1-(2-(1-methylpyrrolidin-2-yl)ethyl)-1H-indol-5-yl)furan-2-carboximidamide], the IC50 in experiment [2] worked out at 13.9 µM.
Same read-out and setting: under `CN1CCCC1CCn1ccc2cc(NC(=N)c3cccs3)ccc21` (stereo not drawn) [Compound 56, N-(1-(2-(1-methylpyrrolidin-2-yl)ethyl)-1H-indol-5-yl)thiophene-2-carboximidamide] stands 4.49 µM.
